According to US9334279B2, “Hepatitis C virus inhibitors” (BRISTOL-MYERS SQUIBB COMPANY, priority 2012, dated 2016):
Read-outs that look alike come from different tables or passages of the source.

Experiments:
HCV GT1a(H77) replicon = assay: HCV replicon luciferase reporter assay, genotype 1a; type: cell-based, HCV genotype 1a; details: Hepatitis C virus, 72 h, HUH-7 cells, Renilla luciferase, 3 days incubation
Description: A stable HCV GT1a(H77) replicon luciferase reporter cell line (Yanagi M, Purcell RH, Emerson S U, et al. Transcripts from a single full-length cDNA clone of hepatitis C virus are infectious when directly transfected into the liver of a chimpanzee. Proc Natl Acad Sci USA 1997; 94(16):8738-8743) was generated as described previously for the genotype 1b(Con1) replicon luciferase cell line. The replicon construct was modified by introducing mutations into the genes encoding the NS3 helicase domain (proline replaced by leucine at position 1496) and NS5A (serine to isoleucine at position 2204) to improve replication in cell culture.
(§1) HCV replicon luciferase assays were developed to monitor the inhibitory effects of compounds described in the disclosure on HCV genotypes 1a and 1b viral replication. HUH-7 cells, constitutively expressing the HCV replicon, were grown in Dulbecco's Modified Eagle Media (DMEM) (Gibco-BRL) containing 10% Fetal calf serum (FCS) (Sigma) and 1 mg/mL G418 (Gibco-BRL). Compounds were serially diluted 3 folds in DMSO for a twenty-point titration and subsequently transferred to sterile 384-well tissue-culture treated plates (Corning cat #3571). The plates were then seeded with 50 μL of cells at a density of 3.0×10^3 cells/well in DMEM containing 4% FCS (final DMSO concentration at 0.5%). After 3 days incubation at 37° C., cells were analyzed for Renilla Luciferase activity using the EnduRen as substrate (Promega cat #E6485). The EnduRen substrate was diluted in DMEM and then added to the plates to a final concentration of 7.5 μM. The plates were incubated for 2 hrs at 37° C. and then read immediately for 30 seconds with Viewlux Imager (PerkinElmer) using a luminescence program. To assess cytotoxicity of compounds, CC50 values were generated by multiplexing the EnduRen-containing plates with Cell Titer-Blue (Promega, cat #G8082). Cell-Titer Blue (3 μL) was added to each well and incubated for 8 hrs at 37° C. The fluorescence signal from each well was read, with an excitation wavelength at 525/10 nm and an emission wavelength of 598/10 nm, using the Viewlux Imager.
(§2) The EC50 values for compounds were calculated by using a four-parameter logistic equation: y=A+[…])/(1+((C/x)^D))), where A and B denotes minimal and maximal % inhibition, respectively, C is the EC50, D is the hill slope and x represents compound concentration.

HCV GT1b(Con1) replicon = assay: HCV replicon luciferase reporter assay, genotype 1b; type: cell-based, HCV genotype 1b; details: Hepatitis C virus, 72 h, HUH-7 cells, Renilla luciferase, 3 days incubation
Description: An HCV GT1b(Con1) replicon cell system was established as described by Lohmann V, Korner F, Koch J, Herian U, Theilmann L, Bartenschlager R., Science 285(5424):110-3 (1999) and modified to introduce a luciferase reporter (Krieger N, Lohmann V, and Bartenschlager R, J. Virol. 75(10):4614-4624 (2001)). cDNA encoding a humanized form of the Renilla luciferase gene, and a linker sequence fused directly to the 3′-end of the luciferase gene were introduced into the replicon construct using an Asc1 restriction site located in core, directly upstream of the neomycin marker gene. The adaptive mutation at position 1179 (serine to isoleucine) was also introduced (Blight K J, Kolykhalov, A A, Rice, C M, Science 290(5498):1972-1974). A stable cell line constitutively expressing this HCV replicon construct was generated by first linearizing plasmid DNAs with ScaI. RNA transcripts were synthesized in vitro using the T7 MegaScript transcription kit (Ambion, Austin, Tex.) according to manufacturer's directions. In vitro transcripts of the cDNA were transfected into the human hepatoma cell line, HUH-7. […] Resulting cell lines were characterized for positive and negative strand RNA production and protein production over time.
as §1, §2

SMILES | EC50 (HCV GT1a(H77) replicon; read-out: LE_1a (EC50, range)) [nM] | EC50 (HCV GT1b(Con1) replicon; read-out: LE_1b (EC50, range)) [nM] | EC50 (HCV GT1a(H77) replicon; read-out: LE_1a (EC50)) [nM] | EC50 (HCV GT1b(Con1) replicon; read-out: LE_1b (EC50)) [nM]
CC[C@@H]1C[C@H](C)CC/C=C\[C@@H]2C[C@@]2(C(=O)NS(=O)(=O)C2CC2)NC(=O)[C@@H]2C[C@@H](Oc3cc(OC)nc(-c4nccs4)c3)CN2C(=O)[C@H]1NC(=O)OC(C)(C)C(F)(F)F [Compound 1056, 1,1,1-trifluoro-2-methylpropan-2-yl ((2R,6S,7R,9R,13aS,14aR,16aS,Z)-14a-((cyclopropylsulfonyl)carbamoyl)-7-ethyl-2-((2-methoxy-6-(thiazol-2-yl)pyridin-4-yl)oxy)-9-methyl-5,16-dioxo-1,2,3,5,6,7,8,9,10,11,13a,14,14a,15,16,16a-hexadecahydrocyclopropa[e]pyrrolo[1,2-a][1,4]diazacyclopentadecin-6-yl)carbamate] | 1.01 to 5 | 1.01 to 5 | – | –
C[C@@H]1CC/C=C\[C@@H]2C[C@@]2(C(=O)NS(=O)(=O)C2(C)CC2)NC(=O)[C@@H]2C[C@@H](Oc3ccnc(-c4nccs4)c3)CN2C(=O)[C@@H](NC(=O)OC(C)(C)C(F)(F)F)[C@H](C)C1 [Compound 1025, 1,1,1-trifluoro-2-methylpropan-2-yl ((2R,6S,7R,9R,13aS,14aR,16aS,Z)-7,9-dimethyl-14a-(((1-methylcyclopropyl)sulfonyl)carbamoyl)-5,16-dioxo-2-((2-(thiazol-2-yl)pyridin-4-yl)oxy)-1,2,3,5,6,7,8,9,10,11,13a,14,14a,15,16,16a-hexadecahydrocyclopropa[e]pyrrolo[1,2-a][1,4]diazacyclopentadecin-6-yl)carbamate] | 1.01 to 5 | 0.51 to 1 | – | –
CC[C@@H]1O[C@H](C)CC/C=C\[C@@H]2C[C@@]2(C(=O)NS(=O)(=O)C2(C)CC2)NC(=O)[C@@H]2C[C@@H](Oc3cc(-c4ccc(OC(C)C)cc4)nc(-c4cncs4)c3)CN2C(=O)[C@H]1NC(=O)OC(C)(C)C(F)(F)F [Compound 1033, 1,1,1-trifluoro-2-methylpropan-2-yl ((2R,6S,7S,9R,13aS,14aR,16aS,Z)-7-ethyl-2-((2-(4-isopropoxyphenyl)-6-(thiazol-5-yl)pyridin-4-yl)oxy)-9-methyl-14a-(((1-methylcyclopropyl)sulfonyl)carbamoyl)-5,16-dioxo-2,3,5,6,7,9,10,11,13a,14,14a,15,16,16a-tetradecahydro-1H-cyclopropa[i]pyrrolo[1,2-e][1,5,8]oxadiazacyclopentadecin-6-yl)carbamate] | 1.01 to 5 | 0.51 to 1 | – | –
CC(C)Oc1ccc(-c2cc(O[C@@H]3C[C@H]4C(=O)N[C@]5(C(=O)NS(=O)(=O)C6(C)CC6)C[C@H]5/C=C\CC[C@@H](C)C[C@@H](C)[C@H](NC(=O)OC(C)(C)C(F)(F)F)C(=O)N4C3)cc(-c3cncs3)n2)cc1 [Compound 1003, 1,1,1-trifluoro-2-methylpropan-2-yl ((2R,6S,7R,9R,13aS,14aR,16aS,Z)-2-((2-(4-isopropoxyphenyl)-6-(thiazol-5-yl)pyridin-4-yl)oxy)-7,9-dimethyl-14a-(((1-methylcyclopropyl)sulfonyl)carbamoyl)-5,16-dioxo-1,2,3,5,6,7,8,9,10,11,13a,14,14a,15,16,16a-hexadecahydrocyclopropa[e]pyrrolo[1,2-a][1,4]diazacyclopentadecin-6-yl)carbamate] | 1.01 to 5 | 1.01 to 5 | – | –
CC[C@@H]1C[C@H](C)CC/C=C\[C@@H]2C[C@@]2(C(=O)NS(=O)(=O)C2CC2)NC(=O)[C@@H]2C[C@@H](Oc3ccc(-c4nccs4)cn3)CN2C(=O)[C@H]1NC(=O)OC(C)(C)C(F)(F)F [Compound 1063, 1,1,1-trifluoro-2-methylpropan-2-yl ((2R,6S,7R,9R,13aS,14aR,16aS,Z)-14a-((cyclopropylsulfonyl)carbamoyl)-7-ethyl-9-methyl-5,16-dioxo-2-((5-(thiazol-2-yl)pyridin-2-yl)oxy)-1,2,3,5,6,7,8,9,10,11,13a,14,14a,15,16,16a-hexadecahydrocyclopropa[e]pyrrolo[1,2-a][1,4]diazacyclopentadecin-6-yl)carbamate] | 5.01 to 35 | 1.01 to 5 | 16.7 | 3.51
CC(C)Oc1ccc(-c2cc(O[C@@H]3C[C@H]4C(=O)N[C@]5(C(=O)NS(=O)(=O)C6(C)CC6)C[C@H]5/C=C\CC[C@H](C)C[C@@H](C)[C@H](NC(=O)OC(C)(C)C(F)(F)F)C(=O)N4C3)cc(-c3ncccn3)n2)cc1 [Compound 1020, 1,1,1-trifluoro-2-methylpropan-2-yl ((2R,6S,7R,9S,13aS,14aR,16aS,Z)-2-((2-(4-isopropoxyphenyl)-6-(pyrimidin-2-yl)pyridin-4-yl)oxy)-7,9-dimethyl-14a-(((1-methylcyclopropyl)sulfonyl)carbamoyl)-5,16-dioxo-1,2,3,5,6,7,8,9,10,11,13a,14,14a,15,16,16a-hexadecahydrocyclopropa[e]pyrrolo[1,2-a][1,4]diazacyclopentadecin-6-yl)carbamate] | 5.01 to 35 | 1.01 to 5 | – | –
CC[C@@H]1O[C@H](C)CC/C=C\[C@@H]2C[C@@]2(C(=O)NS(=O)(=O)C2(C)CC2)NC(=O)[C@@H]2C[C@@H](Oc3cc(-c4ccc(OC(C)C)cc4)nc(-c4cscn4)c3)CN2C(=O)[C@H]1NC(=O)OC1(C(F)(F)F)CCCOC1 (stereo partly drawn) [Compound 1036, 3-(trifluoromethyl)tetrahydro-2H-pyran-3-yl ((2R,6S,7S,9R,13aS,14aR,16aS,Z)-7-ethyl-2-((2-(4-isopropoxyphenyl)-6-(thiazol-4-yl)pyridin-4-yl)oxy)-9-methyl-14a-(((1-methylcyclopropyl)sulfonyl)carbamoyl)-5,16-dioxo-2,3,5,6,7,9,10,11,13a,14,14a,15,16,16a-tetradecahydro-1H-cyclopropa[i]pyrrolo[1,2-e][1,5,8]oxadiazacyclopentadecin-6-yl)carbamate] | 0.51 to 1 | 0.1 to 0.5 | – | –
C[C@@H]1CC/C=C\[C@@H]2C[C@@]2(C(=O)NS(=O)(=O)C2(C)CC2)NC(=O)[C@@H]2C[C@@H](Oc3ccc(-c4nccs4)cn3)CN2C(=O)[C@@H](NC(=O)OC(C)(C)C(F)(F)F)[C@H](C)C1 [Compound 1064, 1,1,1-trifluoro-2-methylpropan-2-yl ((2R,6S,7R,9R,13aS,14aR,16aS,Z)-7,9-dimethyl-14a-(((1-methylcyclopropyl)sulfonyl)carbamoyl)-5,16-dioxo-2-((5-(thiazol-2-yl)pyridin-2-yl)oxy)-1,2,3,5,6,7,8,9,10,11,13a,14,14a,15,16,16a-hexadecahydrocyclopropa[e]pyrrolo[1,2-a][1,4]diazacyclopentadecin-6-yl)carbamate] | 1.01 to 5 | 0.1 to 0.5 | – | –
CC[C@@H]1C[C@H](C)CC/C=C\[C@@H]2C[C@@]2(C(=O)NS(=O)(=O)C2CC2)NC(=O)[C@@H]2C[C@@H](Oc3cc(-c4ccc(OC(C)C)cc4)nc(-c4nccs4)c3)CN2C(=O)[C@H]1NC(=O)O[C@@H]1C[C@@H]2C[C@@H]2C1 [Compound 1057, (1R,3r,5S)-bicyclo[3.1.0]hexan-3-yl ((2R,6S,7R,9R,13aS,14aR,16aS,Z)-14a-((cyclopropylsulfonyl)carbamoyl)-7-ethyl-2-((2-(4-isopropoxyphenyl)-6-(thiazol-2-yl)pyridin-4-yl)oxy)-9-methyl-5,16-dioxo-1,2,3,5,6,7,8,9,10,11,13a,14,14a,15,16,16a-hexadecahydrocyclopropa[e]pyrrolo[1,2-a][1,4]diazacyclopentadecin-6-yl)carbamate] | 1.01 to 5 | 1.01 to 5 | – | –
